“And” between values parts separate entries of the source, which are not always exact repeats. Equal entries are not always repeated.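 96-well plates; 48 h exposure; 5 concentrations. Endpoints by linear interpolation between flanking doses. Not reached: highest tested concentration assigned. GI50 is the concentration that inhibits growth by half. The concentration for full growth arrest is given as TGI.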
How the values were obtained:
Assay in all cases: NCI anticancer screen, dose series, 48 h
CCRF-CEM leukemia = tested on: CCRF-CEM leukemia
DU-145 prostate = tested on: DU-145 prostate
EKVX NSCLC = tested on: EKVX NSCLC
HS 578T breast = tested on: HS 578T breast
HT29 colon = tested on: HT29 colon
M14 melanoma = tested on: M14 melanoma
OVCAR-8 ovarian = tested on: OVCAR-8 ovarian
T-47D breast = tested on: T-47D breast
U251 CNS = tested on: U251 CNS
UACC-257 melanoma = tested on: UACC-257 melanoma

| SMILES | GI50 (CCRF-CEM leukemia) | TGI (CCRF-CEM leukemia) | GI50 (DU-145 prostate) | TGI (DU-145 prostate) | GI50 (EKVX NSCLC) | TGI (EKVX NSCLC) | GI50 (HS 578T breast) | TGI (HS 578T breast) | GI50 (HT29 colon) | TGI (HT29 colon) | GI50 (M14 melanoma) | TGI (M14 melanoma) | GI50 (OVCAR-8 ovarian) | TGI (OVCAR-8 ovarian) | GI50 (T-47D breast) | TGI (T-47D breast) | GI50 (U251 CNS) | TGI (U251 CNS) | GI50 (UACC-257 melanoma) | TGI (UACC-257 melanoma) |
| --- | --- | --- | --- | --- | --- | --- | --- | --- | --- | --- | --- | --- | --- | --- | --- | --- | --- | --- | --- | --- |
| Cc1cc(O)cc(-c2nn(C)cc2-c2cc(N3CCOCC3)nc(-c3cccnc3)n2)c1 | 2.72 µM | 33.9 µM | 3.97 µM | > 100 µM | 10.5 µM | > 100 µM | 2.04 µM | 9.06 µM | 3.39 µM | 21.9 µM | 3.55 µM | 15.8 µM | 7.11 µM | > 100 µM | 2.82 µM | 39 µM | 4.19 µM | 18.9 µM | 13.4 µM | 35.4 µM |
| COc1ccc(OC)c(-c2nc3sc(C)cn3c2/C=C2\C(=O)N(C)c3ccccc32)c1 | 5.8 µM | 83 µM | 29.2 µM | 81.8 µM | 32.2 µM | > 100 µM | 23.6 µM | 70.4 µM | 21.9 µM | 70 µM | 25.4 µM | 80.3 µM | 28.3 µM | > 100 µM | 30.8 µM | 73.7 µM | 22.2 µM | 59.5 µM | 29.5 µM | 82.6 µM |
| CCOC(=O)CC1C(CNC(=O)NC)OC(n2cnc3c(NC(=O)Nc4ccccc4)ncnc32)C1O[Si](C)(C)C(C)(C)C (centres undefined) | 6.69 µM | 88.6 µM | 4.97 µM | 19.4 µM | 17.7 µM | > 100 µM | 3.6 µM | 53.6 µM | 4.2 µM | > 100 µM | 2.51 µM | 11.6 µM | 4.92 µM | 77.2 µM | 2.55 µM | > 100 µM | 4.69 µM | 20.9 µM | 5.68 µM | > 100 µM |
| COC(=O)C[C@@H]1CC=CC(=O)/C1=C(O)/C=C/c1ccccc1 | 0.264 µM | 1.19 µM | 0.695 µM | 1.96 µM | 1.85 µM | 3.91 µM | 3.49 µM | > 49.2 µM | 0.268 µM | 0.774 µM | 0.578 µM | 1.69 µM | 0.602 µM | 3.76 µM | 0.549 µM | 2.66 µM | 0.354 µM | 1.28 µM | 1.34 µM | 2.86 µM |
| COc1ncc(-c2ccc3ncnc(Nc4cccc(Cl)c4)c3c2)cc1NS(C)(=O)=O | 2.81 µM | 43.2 µM | 0.756 µM | 21.1 µM | 0.579 µM | 9.65 µM | 0.852 µM | 9.52 µM | 1.07 µM | 13.1 µM | 2.81 µM | 19.2 µM | 3.75 µM | > 100 µM | 0.169 µM | 1.33 µM | 4.11 µM | 31.6 µM | – | – |
| C#CCn1c2c(c3ccccc3c1=O)C(=O)c1ccccc1-2 | – | > 100 µM | – | 44.4 µM | – | 58.8 µM | – | 34.8 µM | – | 65.9 µM | – | > 100 µM | – | 82.3 µM | – | 69.4 µM | – | 42.5 µM | – | > 100 µM |
| COc1ccc(-c2cncn2-c2ccc(-c3nc4cc(OC)c(OC)c(OC)c4s3)cc2)cc1N | 3.41 µM | > 100 µM | 6.38 µM | > 100 µM | 7.54 µM | > 100 µM | 28.3 µM | > 100 µM | 3.87 µM | > 100 µM | 5.91 µM | > 100 µM | 6.19 µM | > 100 µM | 3.02 µM | > 100 µM | 6 µM | > 100 µM | > 100 µM | > 100 µM |
| CCCCCC/C=C\CCCCCCCCCc1cccc(OC)c1O | – | > 100 µM | – | > 100 µM | – | > 100 µM | – | > 100 µM | – | > 100 µM | – | > 100 µM | – | > 100 µM | – | > 100 µM | – | > 100 µM | – | > 100 µM |
| Clc1ccc2c(NCCNc3nc(N4CCCCC4)nc4ccccc34)ccnc2c1 | 1.99 µM | 45.4 µM | 3.24 µM | 12.9 µM | 4.07 µM | 17.2 µM | 3.04 µM | 8.39 µM | 1.58 µM | 4.1 µM | 1.82 µM | 3.61 µM | 2.17 µM | 5.18 µM | 2.17 µM | 6.11 µM | 2.08 µM | 5.15 µM | 1.94 µM | 3.77 µM |
| COc1ccccc1C(=O)Nc1ccc(Cl)c(C(=O)OC(C)C)c1 | – | > 92.7 µM | – | > 100 µM | – | > 100 µM | – | > 100 µM | – | 88.2 µM | – | > 93.3 µM | – | > 100 µM | – | 60.1 µM | – | > 100 µM | – | > 77.1 µM |
| CN1CCN(c2ccc(NC(=O)c3cncnc3Nc3ccc4c(ccn4Cc4cccc(F)c4)c3)cc2)CC1 | 0.901 µM | 2.66 µM | 3.82 µM | 7.87 µM | 4.78 µM | 9.37 µM | 3.63 µM | 11.8 µM | 0.922 µM | 2.9 µM | 0.616 µM | 1.22 µM | 3.8 µM | 10.6 µM | 2.03 µM | 8.15 µM | 1.3 µM | 4.92 µM | 0.68 µM | 1.45 µM |
| COc1ccccc1CNC(=O)/C=C/c1ccc(O)c(O)c1 | 18.2 µM | > 100 µM | 82.4 µM | > 100 µM | 48.2 µM | > 100 µM | > 100 µM | > 100 µM | 50.5 µM | > 100 µM | 72.4 µM | > 100 µM | 75.7 µM | > 100 µM | 43.4 µM | > 100 µM | 42 µM | > 100 µM | 84.6 µM | > 100 µM |
| CC[C@H](C)C(=O)O[C@H]1C[C@@H](C)C=C2C=C[C@H](C)[C@H](CC[C@@H]3C[C@@H](O)CC(=O)O3)[C@H]21 | 27.4 µM and 13.5 µM | > 100 µM | 43.8 µM and 35.5 µM | > 100 µM | 4.32 µM and 6.61 µM | > 100 µM | 5.08 µM and 5.36 µM | > 100 µM | 24.7 µM and 21.4 µM | > 100 µM | 6.25 µM and 7.89 µM | > 100 µM | 2.96 µM and 6.79 µM | > 100 µM | 32.5 µM and 19.6 µM | > 100 µM | – | – | 32.5 µM and > 46.2 µM | > 100 µM |
| CCN1C(=O)N[C@H]2[C@@H]3NC(=O)c4ccc(Cl)n4[C@@H]3C[C@]21O | 0.224 µM | 1.25 µM | 0.615 µM | 19.3 µM | 1.27 µM | 6.89 µM | 0.578 µM | 13.2 µM | 0.968 µM | 10.4 µM | 0.352 µM | 2.66 µM | 0.533 µM | 9.01 µM | 0.222 µM | 0.933 µM | 0.329 µM | 13.5 µM | – | – |
